± gives the standard deviation of the averaged measurements.
Key:
ABT-737 = compound: CN(C)CC[C@H](CSc1ccccc1)Nc1ccc(S(=O)(=O)NC(=O)c2ccc(N3CCN(Cc4ccccc4-c4ccc(Cl)cc4)CC3)cc2)cc1[N+](=O)[O-] [ABT-737]; test: surviving fraction relative to DMSO-only wells; higher = less growth inhibition; details: exposure time: 5 days
Method in brief: (§1)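 For each tumour cell line, log-phase cells were put into 384-well plates at 250–500 cells per well, then after 24 hours exposed continuously for five days to inhibitors at 0.5, 1, 5, 10, 50, 100, 500 and 1000 nM. Viability was assessed by CellTiter-Glo luminescence, with surviving fraction expressed relative to the median of DMSO-only wells. Lines were screened three times and retained only if replicate Pearson r exceeded 0.7 and median Z' exceeded 0.3.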

17-AAG = compound: C=CCNC1=C2C[C@@H](C)C[C@H](OC)[C@H](O)[C@@H](C)/C=C(\C)[C@H](OC(N)=O)[C@@H](OC)/C=C\C=C(/C)C(=O)NC(=CC1=O)C2=O [17-AAG]; test: as above; details: exposure time: 5 days
Method in brief: as §1

Row | Test System | surviving fraction (ABT-737; 0.5 nM) | surviving fraction (ABT-737; 1 nM) | surviving fraction (ABT-737; 5 nM) | surviving fraction (ABT-737; 10 nM) | surviving fraction (ABT-737; 50 nM) | surviving fraction (ABT-737; 100 nM) | surviving fraction (ABT-737; 500 nM) | surviving fraction (ABT-737; 1000 nM) | surviving fraction (17-AAG; 0.5 nM) | surviving fraction (17-AAG; 1 nM) | surviving fraction (17-AAG; 5 nM) | surviving fraction (17-AAG; 10 nM) | surviving fraction (17-AAG; 50 nM) | surviving fraction (17-AAG; 100 nM) | surviving fraction (17-AAG; 500 nM) | surviving fraction (17-AAG; 1000 nM)
1 | MDAMB361 BREAST | 0.853 ± 0.098 | 0.812 ± 0.15 | 0.815 ± 0.058 | 0.921 ± 0.11 | 0.871 ± 0.032 | 0.909 ± 0.085 | 0.843 ± 0.055 | 0.846 ± 0.086 | 0.765 ± 0.078 | 0.728 ± 0.036 | 0.454 ± 0.036 | 0.332 ± 0.047 | 0.278 ± 0.023 | 0.267 ± 0.015 | 0.324 ± 0.014 | 0.313 ± 0.038
2 | MDAMB436 BREAST | 0.985 ± 0.085 | 1.09 ± 0.041 | 1.05 ± 0.14 | 0.972 ± 0.16 | 0.998 ± 0.1 | 1.14 ± 0.31 | 0.961 ± 0.17 | 0.962 ± 0.083 | 0.801 ± 0.045 | 0.797 ± 0.073 | 0.749 ± 0.077 | 0.581 ± 0.039 | 0.318 ± 0.027 | 0.344 ± 0.033 | 0.328 ± 0.042 | 0.352 ± 0.015
3 | MDAMB453 BREAST | 1.07 ± 0.046 | 1.08 ± 0.083 | 1.1 ± 0.047 | 1.13 ± 0.067 | 1.09 ± 0.036 | 1.1 ± 0.055 | 1.07 ± 0.057 | 1 ± 0.047 | 1.01 ± 0.017 | 1.04 ± 0.03 | 0.842 ± 0.057 | 0.356 ± 0.014 | 0.052 ± 0.027 | 0.048 ± 0.012 | 0.0367 ± 0.0049 | 0.042 ± 0.018
4 | MDAMB468 BREAST | 1.14 ± 0.06 | 1.08 ± 0.018 | 1.08 ± 0.037 | 1.11 ± 0.066 | 1.1 ± 0.045 | 1.11 ± 0.11 | 1.08 ± 0.03 | 1.09 ± 0.12 | 0.901 ± 0.05 | 0.826 ± 0.03 | 0.95 ± 0.039 | 0.931 ± 0.04 | 0.92 ± 0.082 | 0.31 ± 0.022 | 0.219 ± 0.029 | 0.218 ± 0.021
5 | MFM223 BREAST | 1.39 ± 0.39 | 1.4 ± 0.37 | 1.36 ± 0.35 | 1.52 ± 0.56 | 1.08 ± 0.091 | 1.05 ± 0.14 | 1.05 ± 0.082 | 1.2 ± 0.054 | 0.757 ± 0.067 | 0.749 ± 0.036 | 0.503 ± 0.049 | 0.33 ± 0.022 | 0.119 ± 0.0098 | 0.0942 ± 0.006 | 0.08 ± 0.0044 | 0.095 ± 0.006
6 | MG63 BONE | 1.08 ± 0.034 | 1.07 ± 0.024 | 1.12 ± 0.047 | 1.1 ± 0.05 | 1.11 ± 0.033 | 1.09 ± 0.058 | 1.07 ± 0.016 | 1.06 ± 0.04 | 0.886 ± 0.028 | 0.88 ± 0.012 | 0.976 ± 0.028 | 0.919 ± 0.017 | 0.957 ± 0.014 | 0.733 ± 0.021 | 0.258 ± 0.0081 | 0.173 ± 0.0036
7 | MHM BONE | 1.03 ± 0.053 | 1.08 ± 0.062 | 1.07 ± 0.045 | 1.1 ± 0.046 | 1.07 ± 0.034 | 1.15 ± 0.013 | 1.09 ± 0.015 | 1.12 ± 0.015 | 0.973 ± 0.016 | 0.966 ± 0.026 | 0.987 ± 0.043 | 1.019 ± 0.0027 | 1.04 ± 0.02 | 0.912 ± 0.048 | 0.262 ± 0.023 | 0.184 ± 0.0051
8 | NCIH441 LUNG | 1.19 ± 0.027 | 1.22 ± 0.05 | 1.115 ± 0.0076 | 1.11 ± 0.052 | 1.11 ± 0.045 | 1.12 ± 0.077 | 1.11 ± 0.086 | 1.06 ± 0.15 | 0.906 ± 0.13 | 1.02 ± 0.04 | 0.982 ± 0.046 | 0.993 ± 0.074 | 0.609 ± 0.069 | 0.416 ± 0.033 | 0.3 ± 0.025 | 0.308 ± 0.018
9 | NOS1 BONE | 1.07 ± 0.093 | 1.05 ± 0.085 | 1.32 ± 0.035 | 1.14 ± 0.048 | 1.19 ± 0.092 | 1.14 ± 0.048 | 1.09 ± 0.081 | 1.11 ± 0.17 | 0.804 ± 0.1 | 0.831 ± 0.081 | 0.759 ± 0.069 | 0.651 ± 0.063 | 0.379 ± 0.023 | 0.215 ± 0.027 | 0.0853 ± 0.0021 | 0.0827 ± 0.008
10 | NY BONE | 0.986 ± 0.029 | 1.02 ± 0.032 | 1.09 ± 0.064 | 1.09 ± 0.03 | 1.07 ± 0.012 | 1.071 ± 0.0072 | 0.99 ± 0.017 | 0.957 ± 0.035 | 0.9133 ± 0.0047 | 0.924 ± 0.024 | 0.975 ± 0.0089 | 0.771 ± 0.054 | 0.0967 ± 0.0049 | 0.11 ± 0.0063 | 0.068 ± 0.0046 | 0.0527 ± 0.0045
11 | OS25HAL BONE | 0.984 ± 0.048 | 1.07 ± 0.035 | 0.975 ± 0.028 | 1.02 ± 0.025 | 1.06 ± 0.082 | 1.12 ± 0.042 | 0.983 ± 0.045 | 0.882 ± 0.076 | 0.9 ± 0.024 | 0.897 ± 0.041 | 0.909 ± 0.05 | 0.894 ± 0.05 | 0.948 ± 0.015 | 0.762 ± 0.13 | 0.146 ± 0.0098 | 0.141 ± 0.0098
12 | OSHN BONE | 1.09 ± 0.026 | 1.1 ± 0.018 | 1.08 ± 0.014 | 1.09 ± 0.014 | 1.11 ± 0.028 | 1.11 ± 0.022 | 1.02 ± 0.049 | 0.998 ± 0.035 | 0.9227 ± 0.006 | 0.923 ± 0.011 | 0.943 ± 0.013 | 0.937 ± 0.018 | 0.921 ± 0.018 | 0.232 ± 0.071 | 0.123 ± 0.0085 | 0.108 ± 0.0066
13 | PCI30 HEADNECK | 1.12 ± 0.029 | 1.09 ± 0.061 | 1.09 ± 0.096 | 1.07 ± 0.026 | 1.08 ± 0.023 | 1.13 ± 0.11 | 0.919 ± 0.091 | 0.909 ± 0.022 | 0.915 ± 0.067 | 0.972 ± 0.059 | 1.01 ± 0.12 | 1.09 ± 0.029 | 0.302 ± 0.031 | 0.134 ± 0.019 | 0.0433 ± 0.0093 | 0.0393 ± 0.0015
14 | RDES SOFT TISSUE | 1.26 ± 0.093 | 1.17 ± 0.053 | 1.13 ± 0.074 | 0.98 ± 0.036 | 0.765 ± 0.083 | 0.576 ± 0.034 | 0.405 ± 0.037 | 0.385 ± 0.058 | 0.776 ± 0.22 | 0.784 ± 0.055 | 0.674 ± 0.081 | 0.692 ± 0.18 | 0.745 ± 0.11 | 0.992 ± 0.26 | 0.335 ± 0.042 | 0.16 ± 0.0035
15 | S68 BREAST | 1.25 ± 0.083 | 1.04 ± 0.045 | 1.04 ± 0.28 | 1.15 ± 0.047 | 1.26 ± 0.41 | 1.14 ± 0.27 | 0.848 ± 0.25 | 0.822 ± 0.14 | 0.8 ± 0.19 | 0.706 ± 0.12 | 0.126 ± 0.0072 | 0.0657 ± 0.0075 | 0.0677 ± 0.0091 | 0.064 ± 0.0044 | 0.057 ± 0.0079 | 0.0607 ± 0.0047
16 | SAOS2 BONE | 1.18 ± 0.037 | 1.18 ± 0.056 | 1.21 ± 0.098 | 1.19 ± 0.082 | 1.27 ± 0.061 | 1.13 ± 0.059 | 1.14 ± 0.12 | 1.08 ± 0.018 | 0.829 ± 0.046 | 0.775 ± 0.01 | 0.859 ± 0.099 | 0.77 ± 0.073 | 0.215 ± 0.031 | 0.0823 ± 0.004 | 0.069 ± 0.0087 | 0.0783 ± 0.0058
17 | SCC003 HEADNECK | 1.11 ± 0.067 | 1.17 ± 0.03 | 1.16 ± 0.032 | 1.09 ± 0.021 | 1.15 ± 0.096 | 1.16 ± 0.1 | 1.19 ± 0.049 | 1.09 ± 0.069 | 0.839 ± 0.058 | 0.89 ± 0.024 | 0.882 ± 0.04 | 0.789 ± 0.14 | 1.01 ± 0.074 | 0.396 ± 0.012 | 0.195 ± 0.017 | 0.0693 ± 0.0095
18 | SCC36 HEADNECK | 1.08 ± 0.18 | 1.03 ± 0.054 | 1.15 ± 0.028 | 1.13 ± 0.056 | 1.14 ± 0.14 | 1.12 ± 0.061 | 0.897 ± 0.035 | 0.924 ± 0.11 | 0.696 ± 0.065 | 0.767 ± 0.036 | 0.772 ± 0.089 | 0.744 ± 0.093 | 0.518 ± 0.059 | 0.257 ± 0.012 | 0.039 ± 0.0027 | 0.038 ± 0.0044
19 | SCC47 HEADNECK | 1.14 ± 0.033 | 1.13 ± 0.13 | 1.23 ± 0.09 | 1.25 ± 0.05 | 1.24 ± 0.087 | 1.2 ± 0.055 | 1.1 ± 0.053 | 1.14 ± 0.12 | 0.908 ± 0.024 | 0.925 ± 0.028 | 0.973 ± 0.014 | 0.939 ± 0.028 | 0.964 ± 0.053 | 0.255 ± 0.032 | 0.095 ± 0.002 | 0.067 ± 0.0044
20 | SCC90 HEADNECK | 1.05 ± 0.077 | 1.05 ± 0.11 | 1.14 ± 0.12 | 1.14 ± 0.073 | 1.09 ± 0.046 | 1.11 ± 0.097 | 0.949 ± 0.05 | 0.853 ± 0.087 | 0.866 ± 0.0092 | 0.923 ± 0.12 | 1 ± 0.11 | 0.862 ± 0.079 | 0.793 ± 0.039 | 0.423 ± 0.064 | 0.206 ± 0.042 | 0.0677 ± 0.013

Reference: the supplement of paper PMC6045584
